Data set [1] addresses T1, α4β1 integrin (Homo sapiens, UniProt P05556+P13612).
T1 construct: endogenous in cells; host or cells: Ramos cells
Briefly: Inhibition of adhesion of calcein AM-labeled Ramos cells to CS1 (fibronectin) peptide-conjugated ovalbumin. To be noted: Ramos cell adhesion to CS1-conjugated ovalbumin, 30 minutes at 37° C. It is filed as cell-based. The procedure, abridged: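 Calcein AM-labeled Ramos cells (2.5×10^5/well) added with or without compound to plates coated with CS1 peptide-ovalbumin conjugate in TBS containing 1 mM each MgCl2, CaCl2, MnCl2; 30 min at 37° C. Adherent cells lysed and quantified fluorometrically after washes; IC50 as dose for 50% inhibition, or percent inhibition at 100 μM.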

T1 sequence (P13612 34-1032): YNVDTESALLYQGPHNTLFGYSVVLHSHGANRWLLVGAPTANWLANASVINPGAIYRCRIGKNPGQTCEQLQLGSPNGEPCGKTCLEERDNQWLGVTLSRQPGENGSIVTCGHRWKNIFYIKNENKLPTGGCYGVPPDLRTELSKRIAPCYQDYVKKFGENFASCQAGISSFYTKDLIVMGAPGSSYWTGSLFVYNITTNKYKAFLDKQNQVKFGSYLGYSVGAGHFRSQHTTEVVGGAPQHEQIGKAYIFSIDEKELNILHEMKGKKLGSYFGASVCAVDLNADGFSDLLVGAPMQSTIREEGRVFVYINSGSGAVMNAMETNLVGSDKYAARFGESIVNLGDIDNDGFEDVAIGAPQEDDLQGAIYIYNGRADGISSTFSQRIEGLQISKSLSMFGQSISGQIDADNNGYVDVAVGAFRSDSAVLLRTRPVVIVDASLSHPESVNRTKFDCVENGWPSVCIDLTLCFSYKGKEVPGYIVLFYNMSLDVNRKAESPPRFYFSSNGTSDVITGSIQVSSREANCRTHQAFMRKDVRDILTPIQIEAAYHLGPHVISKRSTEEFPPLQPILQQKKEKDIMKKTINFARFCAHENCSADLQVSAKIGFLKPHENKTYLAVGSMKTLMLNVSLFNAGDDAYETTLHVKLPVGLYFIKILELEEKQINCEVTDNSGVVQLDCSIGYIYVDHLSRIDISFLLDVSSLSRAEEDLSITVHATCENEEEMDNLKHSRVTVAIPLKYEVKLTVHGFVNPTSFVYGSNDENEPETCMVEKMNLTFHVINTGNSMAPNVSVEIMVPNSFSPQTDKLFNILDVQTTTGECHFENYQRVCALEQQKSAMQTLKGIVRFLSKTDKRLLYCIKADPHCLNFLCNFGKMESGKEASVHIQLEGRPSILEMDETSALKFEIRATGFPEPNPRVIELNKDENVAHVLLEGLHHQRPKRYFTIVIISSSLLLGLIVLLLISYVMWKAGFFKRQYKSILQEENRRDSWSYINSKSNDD
T1 sequence (P05556 21-798): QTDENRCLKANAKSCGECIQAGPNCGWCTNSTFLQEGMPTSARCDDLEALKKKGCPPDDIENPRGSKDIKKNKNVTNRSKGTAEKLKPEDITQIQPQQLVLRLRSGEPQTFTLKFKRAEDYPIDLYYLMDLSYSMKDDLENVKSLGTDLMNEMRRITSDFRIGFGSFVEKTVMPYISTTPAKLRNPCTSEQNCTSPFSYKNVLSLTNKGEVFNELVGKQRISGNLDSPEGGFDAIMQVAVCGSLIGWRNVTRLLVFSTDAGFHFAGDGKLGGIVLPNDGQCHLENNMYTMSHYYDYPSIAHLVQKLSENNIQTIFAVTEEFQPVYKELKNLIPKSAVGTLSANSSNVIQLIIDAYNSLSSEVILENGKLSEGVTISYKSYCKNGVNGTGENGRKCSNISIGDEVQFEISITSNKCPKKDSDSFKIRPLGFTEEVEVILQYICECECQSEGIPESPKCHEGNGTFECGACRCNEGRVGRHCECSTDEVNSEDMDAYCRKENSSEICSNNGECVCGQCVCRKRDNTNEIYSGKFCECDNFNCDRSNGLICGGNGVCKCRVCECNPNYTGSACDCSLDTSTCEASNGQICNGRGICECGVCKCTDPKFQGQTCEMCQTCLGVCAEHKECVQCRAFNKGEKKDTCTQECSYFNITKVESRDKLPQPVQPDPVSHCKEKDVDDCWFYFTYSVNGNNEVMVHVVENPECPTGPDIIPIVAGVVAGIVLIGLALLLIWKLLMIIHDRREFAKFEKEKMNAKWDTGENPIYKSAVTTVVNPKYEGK

Turning to `CCCCC(C(=O)N[C@@H](CC(=O)O)c1ccc2c(c1)OCO2)N1C(=O)N(Cc2ccccc2)C(=O)C1(C)C` (stereo partly drawn) [(3S)-3-(1,3-benzodioxol-5-yl)-3-({2-[5,5-dimethyl-2,4-dioxo-3-(phenylmethyl)tetrahydro-1H-imidazol-1-yl]hexanoyl}amino)propanoic acid], the melting point lay in the range of 53 to 55 °C. Also, the IC50 in data set [1] (Table 3) is 20000 nM.
For the compound `CCCCC(C(=O)N[C@@H](CC(=O)O)c1ccc(C)c(OC(C)C)c1)n1cc(C)cc(Cc2ccccc2)c1=O` (stereo partly drawn) [(3S)-3-{4-methyl-3-[(1-methylethyl)oxy]phenyl}-3-({2-[5-methyl-2-oxo-3-(phenylmethyl)-1(2H)-pyridinyl]hexanoyl}amino)propanoic acid], in data set [1] (Table 4), the IC50 was 15 nM.
With `CCCCC(C(=O)N[C@@H](CC(=O)O)c1ccc(OC)c(C)c1C)n1cccc(Cc2ccccc2)c1=O` (stereo partly drawn) [(3S)-3-{[2-(3-benzyl-2-oxopyridin-1(2H)-yl)hexanoyl]amino}-3-(4-methoxy-2,3-dimethylphenyl)propanoic acid], the IC50 in data set [1] (Table 4) is 300 nM.
Turning to `CCCCC(C(=O)N[C@@H](CC(=O)O)c1cc(C)ccc1C)n1cc(C)cc(Cc2ccccc2)c1=O` (stereo partly drawn) [(3S)-3-{[2-(3-benzyl-5-methyl-2-oxopyridin-1(2H)-yl)hexanoyl]amino}-3-(2,5-dimethylphenyl)propanoic acid], in data set [1] (Table 4), the IC50 is 300 nM.
Same read-out and setting: the result for `CCCCC(C(=O)N[C@@H](CC(=O)O)c1ccc(C)c(C)c1)n1cc(C)cc(Cc2ccccc2)c1=O` (stereo partly drawn) [(3S)-3-{[2-(3-benzyl-5-methyl-2-oxopyridin-1(2H)-yl)hexanoyl]amino}-3-(3,4-dimethylphenyl)propanoic acid] reads 130 nM; that for `CCCCC(C(=O)N[C@@H](CC(=O)O)c1cc(F)cc(F)c1)n1cc(C)cc(Cc2ccccc2)c1=O` (stereo partly drawn) [(3S)-3-{[2-(3-benzyl-5-methyl-2-oxopyridin-1(2H)-yl)hexanoyl]amino}-3-(3,5-difluorophenyl)propanoic acid], 25 nM; that for `CCCCC(C(=O)N[C@@H](CC(=O)O)c1cc(C)cc(C)c1)n1cc(C)cc(Cc2ccccc2)c1=O` (stereo partly drawn) [(3S)-3-{[2-(3-benzyl-5-methyl-2-oxopyridin-1(2H)-yl)hexanoyl]amino}-3-(3,5-dimethylphenyl)propanoic acid], 52 nM.
For the compound `CCCCOc1cccc([C@H](CC(=O)O)NC(=O)C(CCCC)n2cc(C)cc(Cc3ccccc3)c2=O)c1` (stereo partly drawn) [(3S)-3-{[2-(3-benzyl-5-methyl-2-oxopyridin-1(2H)-yl)hexanoyl]amino}-3-(3-butoxyphenyl)propanoic acid], the IC50 in data set [1] (Table 4) was 45 nM.
As for `CCCCC(C(=O)N[C@@H](CC(=O)O)c1ccc(OC)c(OCC)c1)n1cc(C)cc(Cc2ccccc2)c1=O` (stereo partly drawn) [(3S)-3-{[2-(3-benzyl-5-methyl-2-oxopyridin-1(2H)-yl)hexanoyl]amino}-3-(3-ethoxy-4-methoxyphenyl)propanoic acid], in data set [1] (Table 4), the IC50 was 4 nM.
For `CCCCC(C(=O)N[C@@H](CC(=O)O)c1cccc(OCC)c1)n1cc(C)cc(Cc2ccccc2)c1=O` (stereo partly drawn) [(3S)-3-{[2-(3-benzyl-5-methyl-2-oxopyridin-1(2H)-yl)hexanoyl]amino}-3-(3-ethoxyphenyl)propanoic acid], the IC50 in data set [1] (Table 4) was 35 nM.
Turning to `CCCCC(C(=O)N[C@@H](CC(=O)O)c1cccc(OC(C)C)c1)n1cc(C)cc(Cc2ccccc2)c1=O` (stereo partly drawn) [(3S)-3-{[2-(3-benzyl-5-methyl-2-oxopyridin-1(2H)-yl)hexanoyl]amino}-3-(3-isopropoxyphenyl)propanoic acid], the IC50 in data set [1] (Table 4) is 4 nM.
As to `CCCCC(C(=O)N[C@@H](CC(=O)O)c1cccc(OCCC)c1)n1cc(C)cc(Cc2ccccc2)c1=O` (stereo partly drawn) [(3S)-3-{[2-(3-benzyl-5-methyl-2-oxopyridin-1(2H)-yl)hexanoyl]amino}-3-(3-propoxyphenyl)propanoic acid], the IC50 in data set [1] (Table 4) is 10 nM.
For the compound `CCCCC(C(=O)N[C@@H](CC(=O)O)c1ccc(Cl)c(OC(C)C)c1)n1cc(C)cc(Cc2ccccc2)c1=O` (stereo partly drawn) [(3S)-3-{[2-(3-benzyl-5-methyl-2-oxopyridin-1(2H)-yl)hexanoyl]amino}-3-(4-chloro-3-isopropoxyphenyl)propanoic acid], the IC50 in data set [1] (Table 4) is 25 nM.
As to `CCCCC(C(=O)N[C@@H](CC(=O)O)c1cc(C)c(OC)cc1C)n1cc(C)cc(Cc2ccccc2)c1=O` (stereo partly drawn) [(3S)-3-{[2-(3-benzyl-5-methyl-2-oxopyridin-1(2H)-yl)hexanoyl]amino}-3-(4-methoxy-2,5-dimethylphenyl)propanoic acid], in data set [1] (Table 4), the IC50 is 283 nM.
Still for that read-out and setting: in the case of `CCCCC(C(=O)N[C@@H](CC(=O)O)c1cc(C)c(OC)c(C)c1)n1cc(C)cc(Cc2ccccc2)c1=O` (stereo partly drawn) [(3S)-3-{[2-(3-benzyl-5-methyl-2-oxopyridin-1(2H)-yl)hexanoyl]amino}-3-(4-methoxy-3,5-dimethylphenyl)propanoic acid] it was 140 nM; in that of `CCCCC(C(=O)N[C@@H](CC(=O)O)c1ccc(OC)c(C)c1)n1cc(C)cc(Cc2ccccc2)c1=O` (stereo partly drawn) [(3S)-3-{[2-(3-benzyl-5-methyl-2-oxopyridin-1(2H)-yl)hexanoyl]amino}-3-(4-methoxy-3-methylphenyl)propanoic acid], 9 nM.
As for `CCCCC(C(=O)N[C@@H](CC(=O)O)c1ccc(-c2ccc(OC)cc2)cc1)n1cc(C)cc(Cc2ccccc2)c1=O` (stereo partly drawn) [(3S)-3-{[2-(3-benzyl-5-methyl-2-oxopyridin-1(2H)-yl)hexanoyl]amino}-3-(4′-methoxy-1,1′-biphenyl-4-yl)propanoic acid], the IC50 in data set [1] (Table 4) is 300 nM.
Turning to `CCCCC(C(=O)N[C@@H](CC(=O)O)c1ccc(-c2ccc(C)cc2)cc1)n1cc(C)cc(Cc2ccccc2)c1=O` (stereo partly drawn) [(3S)-3-{[2-(3-benzyl-5-methyl-2-oxopyridin-1(2H)-yl)hexanoyl]amino}-3-(4′-methyl-1,1′-biphenyl-4-yl)propanoic acid], the IC50 in data set [1] (Table 4) was 250 nM.
For the compound `CCCCC(C(=O)N[C@@H](CC(=O)O)c1ccc2cc(OC)ccc2c1)n1cc(C)cc(Cc2ccccc2)c1=O` (stereo partly drawn) [(3S)-3-{[2-(3-benzyl-5-methyl-2-oxopyridin-1(2H)-yl)hexanoyl]amino}-3-(6-methoxy-2-naphthyl)propanoic acid], the IC50 in data set [1] (Table 4) was 40 nM.
On the same count and under the same terms, in the case of `CCCCC(C(=O)N[C@@H](CC(=O)O)c1cccc(OC(F)(F)F)c1)n1cc(C)cc(Cc2ccccc2)c1=O` (stereo partly drawn) [(3S)-3-{[2-(3-benzyl-5-methyl-2-oxopyridin-1(2H)-yl)hexanoyl]amino}-3-[3-(trifluoromethoxy)phenyl]propanoic acid] it was 40 nM; in that of `CCCCC(C(=O)N[C@@H](CC(=O)O)c1cccc(C(F)(F)F)c1)n1cc(C)cc(Cc2ccccc2)c1=O` (stereo partly drawn) [(3S)-3-{[2-(3-benzyl-5-methyl-2-oxopyridin-1(2H)-yl)hexanoyl]amino}-3-[3-(trifluoromethyl)phenyl]propanoic acid], 250 nM; in that of `CCCCC(C(=O)N[C@@H](CC(=O)O)c1ccc(OC(F)(F)F)cc1)n1cc(C)cc(Cc2ccccc2)c1=O` (stereo partly drawn) [(3S)-3-{[2-(3-benzyl-5-methyl-2-oxopyridin-1(2H)-yl)hexanoyl]amino}-3-[4-(trifluoromethoxy)phenyl]propanoic acid], 27 nM.
In the case of `CCCCC(C(=O)N[C@@H](CC(=O)O)c1ccccc1)n1cc(C)cc(Cc2ccccc2)c1=O` (stereo partly drawn) [(3S)-3-{[2-(3-benzyl-5-methyl-2-oxopyridin-1(2H)-yl)hexanoyl]amino}-3-phenylpropanoic acid], the IC50 in data set [1] (Table 4) was 10 nM.
Take `CCCC[C@@H](C(=O)N[C@@H](CC(=O)O)c1ccc(-c2c(OC)cccc2OC)cc1)n1cc(C)cc(Cc2ccccc2)c1=O` [(3S)-3-{[(2S)-2-(3-benzyl-5-methyl-2-oxopyridin-1(2H)-yl)hexanoyl]amino}-3-(2′,6′-dimethoxy-1,1′-biphenyl-4-yl)propanoic acid]: the IC50 in data set [1] (Table 4) was 200 nM.
Turning to `CCCC[C@@H](C(=O)N[C@@H](CC(=O)O)c1cc(OC)cc(OC)c1)n1cc(C)cc(Cc2ccccc2)c1=O` [(3S)-3-{[(2S)-2-(3-benzyl-5-methyl-2-oxopyridin-1(2H)-yl)hexanoyl]amino}-3-(3,5-dimethoxyphenyl)propanoic acid], the half-inhibitory concentration (IC50) in data set [1] (Table 4) is 10 nM.
`CCCC[C@@H](C(=O)N[C@@H](CC(=O)O)c1ccc(OC)c(F)c1)n1cc(C)cc(Cc2ccccc2)c1=O` [(3S)-3-{[(2S)-2-(3-benzyl-5-methyl-2-oxopyridin-1(2H)-yl)hexanoyl]amino}-3-(3-fluoro-4-methoxyphenyl)propanoic acid]: the IC50 in data set [1] (Table 4) is 17 nM.
On to `CCCCC(C(=O)N[C@@H](CC(=O)O)c1cc(OC)c(OC)c(OC)c1)n1cc(C)cc(Cc2ccccc2)c1=O` (stereo partly drawn) [(3S)-3-{]2-(3-benzyl-5-methyl-2-oxopyridin-1(2H)-yl)hexanoyl]amino}-3-(3,4,5-trimethoxyphenyl)propanoic acid], for which the half-inhibitory concentration (IC50) in data set [1] (Table 4) was 33 nM.
Consider `CCCC[C@@H](C(=O)N[C@@H](CC(=O)O)c1ccc2c(c1)OCO2)n1cc(C)cc(Cc2ccccc2)c1=O` [Compound 10], for which the IC50 in data set [1] (Table 1) was 3 nM.

Usually melting point stands for the temperature, or range, at which the solid turns liquid. By IC50 is commonly meant the concentration that inhibits the measured activity by half.

The record behind these values is US20030199692A1, “Propanoic acid derivatives that inhibit the binding of integrins to their receptors” (priority 1999, published 2003).
